What was measured:
[1] = test system: human liver cells (Chang); assay: MTT cell viability assay, Chang; assay type: cell-based; settings: 72 h
Procedure: 3-(4,5-dimethythiazol-2-yl)-2,5-diphenyl-2-H-tetrazolium bromide (MTT) colorimetric assay was employed to investigate cell viability. Cells were seeded into 96-well plates with 2-5× 10^3 cells per well (5× 10^3 cells/well for LNCaP, 22RV1, NIH-3T3, GES-1, Chang, […]
NCI-H1299, U2OS, U87) for 1 day incubation at 37 °C. Then, the cells were treated with various concentrations of compounds (22.86 nM - 50 μM) and incubated for 72 h. Then, 10 μl MTT (5 mg/ml) was added into each well and incubated for 4 h. Afterwards, 100 μl of triplex 10% SDS-0.1% HCl-phosophate-buffered saline (PBS) solutions was added into each well and incubated for overnight. The absorbance at 570 nm was measured (Eon, Bioteck, Winooski, VT). […]

PR = target: T1, PR (Homo sapiens, UniProt P06401); assay: Luciferase reporter assay for PR (PC3 cells); assay type: cell-based; settings: 10 μM, 10 nM progesterone
T1 construct: host or cells: PC3
T1 sequence (P06401 1-933): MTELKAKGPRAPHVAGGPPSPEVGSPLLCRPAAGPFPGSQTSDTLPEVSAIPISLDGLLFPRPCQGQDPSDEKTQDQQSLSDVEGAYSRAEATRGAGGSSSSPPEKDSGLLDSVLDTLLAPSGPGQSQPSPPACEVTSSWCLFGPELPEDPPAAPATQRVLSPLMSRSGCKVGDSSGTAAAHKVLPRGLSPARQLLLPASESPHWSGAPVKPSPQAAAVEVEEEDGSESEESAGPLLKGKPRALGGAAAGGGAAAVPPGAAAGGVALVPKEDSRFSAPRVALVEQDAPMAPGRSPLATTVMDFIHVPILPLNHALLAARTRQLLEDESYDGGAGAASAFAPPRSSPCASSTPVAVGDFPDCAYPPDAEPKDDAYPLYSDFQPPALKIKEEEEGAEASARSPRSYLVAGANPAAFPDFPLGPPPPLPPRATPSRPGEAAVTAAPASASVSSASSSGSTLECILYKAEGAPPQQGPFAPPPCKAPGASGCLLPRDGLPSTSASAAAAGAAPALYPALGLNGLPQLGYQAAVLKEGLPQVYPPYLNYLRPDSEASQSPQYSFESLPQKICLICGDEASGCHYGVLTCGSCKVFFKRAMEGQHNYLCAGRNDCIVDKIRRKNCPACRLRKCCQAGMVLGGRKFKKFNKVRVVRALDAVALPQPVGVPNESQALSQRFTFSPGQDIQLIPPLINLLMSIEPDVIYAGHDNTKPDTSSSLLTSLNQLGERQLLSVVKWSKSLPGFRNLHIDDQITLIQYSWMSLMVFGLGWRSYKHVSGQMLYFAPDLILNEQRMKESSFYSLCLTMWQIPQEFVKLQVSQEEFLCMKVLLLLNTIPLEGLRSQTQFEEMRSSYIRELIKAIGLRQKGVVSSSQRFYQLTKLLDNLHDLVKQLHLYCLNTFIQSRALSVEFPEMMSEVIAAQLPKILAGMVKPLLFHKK
Procedure: Luciferase Reporter Assays for PR, GR, and MR
PC3, HeLa, and HEK293T cells were cultured using 5% CSS RPMI-1640, 5% CSS RPMI-1640 and 10% FBS DMEM media in 96-well plates for 24 h, respectively. For PR induction, PC3 (1 × 10^4 cells/well) were transfected with 50 ng pcDNA3-PRB (#89130, Addgene), 24 ng pGL4.36[luc2P MMTV Hygro] (Promega) and 5 ng Renilla using HG-TransGeneTM transfection reagent (#TG-10012, Genomeditech) for 4 h. For GR induction, Hela (1 × 10^4 cells/well) were transfected with 71 ng pCMV -GR11 (#89105, Addgene), 24 ng pGL4.36[luc2P MMTV Hygro] (Promega) and 5 ng Renilla using lip3000 transfection reagent (#L3000075, Thermofisher) for 24 h. For MR induction, HEK293T (1 × 10^4 cells/well) were transfected with 71 ng pCMV-MR gifted by Liu et al. 28, 24 ng of pGL4.36[luc2P MMTV Hygro] (Promega) and 5 ng Renilla using lip3000 transfec tion reagent for 24 h. For the antagonistic models, 10 nM /well progesterone for PC3 cells , 1 nM/well dexamethasone for HeLa, and 5 nM/well aldosterone for HEK293T cells were added to stimulate the cells. Meanwhile, each cell line was treated with a series concentration of compounds (0.4, 2, and 10 μM). For the agonistic models, the cells were directly treated with the compounds without any hormones. Endogenous hormones progesterone, dexamethasone, and aldosterone were considered as agonists for PR, GR, and MR, respectively. The luciferase activities were assessed using the Dual-Glo Luciferase system (#E1910, Promega). […]

| SMILES | cytotoxicity against Chang [1] | PR antagonistic activity (PR) |
| --- | --- | --- |
| CC(=O)Cc1nsc(NC(=O)c2cc(-c3cccc(C(F)(F)F)c3)oc2C)n1 [Compound M17-B15] | negligible cytotoxicity | moderate |
| CNC(=O)c1ccc(N2C(=S)N(c3ccc(C#N)c(C(F)(F)F)c3)C(=O)C2(C)C)cc1F [Enz, enzalutamide, reference compound] | negligible cytotoxicity | moderate |

Reference: article PMC10141604, “Small-Molecule Inhibition of Androgen Receptor Dimerization as a Strategy against Prostate Cancer” (ACS Central Science, 2023)
